Ends that are not written are not given here.
Test system: HIV-1 SF-2
Test: HIV-1 infectivity assay in H9 cells (p24 production and RT activity in culture supernatants)
Assay type: cell-based
Details: approximately 100 μm peptide
Description: The tripeptide amides made according to EXAMPLE 1 were used in several HIV-1 infectivity assays to determine the ability of said tripeptide amides to inhibit HIV replication and/or infection. The efficiency of HIV-1 replication and status of HIV-1 infection was monitored by reverse transcriptase activity and the concentration of p24 protein in the cell supernatant. (See e.g., U.S. Pat. Nos. 5,627,035 and 6,258,932B1, herein expressly incorporated by reference in their entireties, which describe similar HIV infectivity assays and others that can be used to analyze the tripeptide amides described herein). EXAMPLE 2 describes an approach that was used to screen several tripeptide amides for their ability to inhibit HIV-1 infection.
In this example, the methods that were used to analyze the ability of various tripeptide amides to inhibit HIV-1 replication are disclosed. Approximately 10^5 of H9 cells were infected with HIV-1 SF-2 at 25 TCID50 to test the inhibitory effect of the following synthesized tripeptides: Ser-Ile-Leu-NH2, Ile-Leu-Asp-NH2, Gly-Pro-Lys-NH2, Pro-Lys-Glu-NH2, Lys-Glu-Pro-NH2, Glu-Pro-Phe-NH2, Arg-Asp-Tyr-NH2, Asp-Tyr-Val-NH2, Tyr-Lys-Thr-NH2, Arg-Ala-Glu-NH2, Ala-Glu-Gln-NH2, Glu-Gln-Ala-NH2, Val-Lys-Asn-NH2, Thr-Glu-Thr-NH2, Leu-Leu-Val-NH2, Val-Gln-Asn-NH2, Gln-Asn-Ala,-NH2, Asn-Ala-Asn-NH2, Asn-Pro-Asp-NH2, Pro-Asp-Cys-NH2, Cys-Lys-Thr-NH2, Thr-Ile-Leu-NH2, Pro-Gly-Ala-NH2, Thr-Leu-Glu-NH2, Thr-Ala-Cys-NH2, Ala-Cys-Gln-NH2, Gln-Gly-Val-NH2, Pro-Gly-His-NH2, and Arg-Val-Leu-NH2. Accordingly, the H9 cells were resuspended with or without the different peptides (approximately 100 μm) in 1 ml of RPMI 1640 medium supplemented with 10% (v/v) heat-inactivated fetal bovine serum (FBS), penicillin (100 μ/ml), and streptomycin (100 μ/ml), all available through GIBCO, and Polybrene (2 μg/ml), available through Sigma. Thereafter, viruses were added at 25 TCID50 in a volume of 20-30 μl. Cells were incubated with virus at 37° C. for 1 hr then pelleted at 170×g for 7 minutes. The cells were then washed three times in RPMI medium with or without peptides at room temperature and pelleted at 170×g for 7 minutes, as above. After the final wash, the cells were resuspended in RPMI culture medium containing the peptides in a 24-well plate (Costar corporation) and were kept at 37° C. in 5% CO2 with humidity.
Culture supernatants were collected and analyzed when the medium was changed at 4, 7, 10, and 14 days post infection. To monitor the replication of virus, reverse transcriptase (RT) activity in the supernatants was assayed using a commercially available Lenti-RT activity kit. (Cavidi Tech, Uppsala, Sweden). The amount of RT was determined with the aid of a regression line of standards.
The presence of p24 in the supernatants was determined using a commercially available HIV p24 antigen detection kit (ELISA kit from Abbott Laboratories, North Chicago, U.S.A.). In some cases, serial dilutions of the supernatants were made so as to more accurately detect p24 concentration.

With Ala-Cys-Gln-NH2 the “inhibition of HIV-1 infection” value was “effectively inhibit HIV-1 infection”.

With Ala-Glu-Gln-NH2 the “inhibition of HIV-1 infection” value was “effectively inhibit HIV-1 infection”.

Arg-Ala-Glu-NH2 was tested, and the “inhibition of HIV-1 infection” value was “effectively inhibit HIV-1 infection”.

Arg-Asp-Tyr-NH2 was tested, and the “inhibition of HIV-1 infection” value was “effectively inhibit HIV-1 infection”.

For Arg-Val-Leu-NH2, the “inhibition of HIV-1 infection” value was “effectively inhibit HIV-1 infection”.

With Asn-Ala-Asn-NH2 the “inhibition of HIV-1 infection” value was “effectively inhibit HIV-1 infection”.

For Asn-Pro-Asp-NH2, the “inhibition of HIV-1 infection” value was “effectively inhibit HIV-1 infection”.

For Asp-Tyr-Val-NH2, the “inhibition of HIV-1 infection” value was “effectively inhibit HIV-1 infection”.

Cys-Lys-Thr-NH2 was tested, and the “inhibition of HIV-1 infection” value was “effectively inhibit HIV-1 infection”.

In the case of Gln-Asn-Ala-NH2, the “inhibition of HIV-1 infection” value is reported as “effectively inhibit HIV-1 infection”.

In the case of Gln-Gly-Val-NH2, the “inhibition of HIV-1 infection” value is reported as “effectively inhibit HIV-1 infection”.

For Glu-Gln-Ala-NH2, the “inhibition of HIV-1 infection” value was “effectively inhibit HIV-1 infection”.

In the case of Glu-Pro-Phe-NH2, the “inhibition of HIV-1 infection” value is reported as “effectively inhibit HIV-1 infection”.

For Gly-Pro-Lys-NH2, the “inhibition of HIV-1 infection” value was “effectively inhibit HIV-1 infection”.

With Ile-Leu-Asp-NH2 the “inhibition of HIV-1 infection” value was “effectively inhibit HIV-1 infection”.

With Leu-Leu-Val-NH2 the “inhibition of HIV-1 infection” value was “effectively inhibit HIV-1 infection”.

For Lys-Glu-Pro-NH2, the “inhibition of HIV-1 infection” value was “effectively inhibit HIV-1 infection”.

Pro-Asp-Cys-NH2 was tested, and the “inhibition of HIV-1 infection” value was “effectively inhibit HIV-1 infection”.

Pro-Gly-Ala-NH2 was tested, and the “inhibition of HIV-1 infection” value was “effectively inhibit HIV-1 infection”.

In the case of Pro-Gly-His-NH2, the “inhibition of HIV-1 infection” value is reported as “effectively inhibit HIV-1 infection”.

Pro-Lys-Glu-NH2 was tested, and the “inhibition of HIV-1 infection” value was “effectively inhibit HIV-1 infection”.

In the case of Ser-Ile-Leu-NH2, the “inhibition of HIV-1 infection” value is reported as “effectively inhibit HIV-1 infection”.

In the case of Thr-Ala-Cys-NH2, the “inhibition of HIV-1 infection” value is reported as “effectively inhibit HIV-1 infection”.

For Thr-Glu-Thr-NH2, the “inhibition of HIV-1 infection” value was “effectively inhibit HIV-1 infection”.

With Thr-Ile-Leu-NH2 the “inhibition of HIV-1 infection” value was “effectively inhibit HIV-1 infection”.

With Thr-Leu-Glu-NH2 the “inhibition of HIV-1 infection” value was “effectively inhibit HIV-1 infection”.

In the case of Tyr-Lys-Thr-NH2, the “inhibition of HIV-1 infection” value is reported as “effectively inhibit HIV-1 infection”.

With Val-Gln-Asn-NH2 the “inhibition of HIV-1 infection” value was “effectively inhibit HIV-1 infection”.

In the case of Val-Lys-Asn-NH2, the “inhibition of HIV-1 infection” value is reported as “effectively inhibit HIV-1 infection”.
